Measurements published in US20220056015A1, “KIF18A INHIBITORS” (AMGEN INC., priority 2018, published 2022).

target: T1, Recombinant human KIF18A (1-467 His-tagged) protein (Homo sapiens, UniProt Q8NI77); test: KIF18A Enzyme Assay: microtubule-stimulated ATPase activity assay (ADP-Glo); type: biochemical; conditions: 30 nM KIF18A, 30 μg/mL pig microtubules, ATP at Km 75 μM, room temperature, ADP-Glo luminescence
T1 construct: Recombinant human KIF18A (1-467 His-tagged) protein; His
Text: KIF18A Enzyme Assay: Microtubule-stimulated ATPase activity assay is used to measure KIF18A enzyme activity after treatment with compound. Compounds were 2-fold serially diluted in DMSO (Sigma Inc) over 22-point concentration range. Recombinant human KIF18A (1-467 His-tagged) protein was expressed using a baculovirus system and purified by affinity chromatography by Amgen Inc. Concentrations of KIF18A protein, microtubules (MT), and ATP in the reaction were optimized for standardized homogenous enzyme assay using ADP-Glorm Kinase/ATPase Assay Kit (Promega Inc). The assay measures ADP formed from the ATPase reaction. […] Read luminescence using EnVision microplate reader with ultra-luminescence module (Perkin Elmer Inc). Concentration-response curve-fitting and ICn determination was performed using Genedata Screener Software (Standard 15.0.1, Genedata Inc) with a four-parameter logistic regression fit model.

T1 sequence (Q8NI77 1-467): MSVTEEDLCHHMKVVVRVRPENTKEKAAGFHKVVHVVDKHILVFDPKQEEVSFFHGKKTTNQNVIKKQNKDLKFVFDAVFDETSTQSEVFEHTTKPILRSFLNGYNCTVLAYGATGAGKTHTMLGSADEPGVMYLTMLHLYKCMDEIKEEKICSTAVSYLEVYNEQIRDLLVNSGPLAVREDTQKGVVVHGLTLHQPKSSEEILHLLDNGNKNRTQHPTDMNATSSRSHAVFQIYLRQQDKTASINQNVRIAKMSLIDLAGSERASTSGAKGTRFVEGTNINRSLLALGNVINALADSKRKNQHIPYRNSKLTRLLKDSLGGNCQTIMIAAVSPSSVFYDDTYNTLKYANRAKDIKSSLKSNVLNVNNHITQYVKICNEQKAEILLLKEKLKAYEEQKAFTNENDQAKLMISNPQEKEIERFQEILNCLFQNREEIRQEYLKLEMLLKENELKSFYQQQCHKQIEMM
T1 sequence (P02550 whole entry partner): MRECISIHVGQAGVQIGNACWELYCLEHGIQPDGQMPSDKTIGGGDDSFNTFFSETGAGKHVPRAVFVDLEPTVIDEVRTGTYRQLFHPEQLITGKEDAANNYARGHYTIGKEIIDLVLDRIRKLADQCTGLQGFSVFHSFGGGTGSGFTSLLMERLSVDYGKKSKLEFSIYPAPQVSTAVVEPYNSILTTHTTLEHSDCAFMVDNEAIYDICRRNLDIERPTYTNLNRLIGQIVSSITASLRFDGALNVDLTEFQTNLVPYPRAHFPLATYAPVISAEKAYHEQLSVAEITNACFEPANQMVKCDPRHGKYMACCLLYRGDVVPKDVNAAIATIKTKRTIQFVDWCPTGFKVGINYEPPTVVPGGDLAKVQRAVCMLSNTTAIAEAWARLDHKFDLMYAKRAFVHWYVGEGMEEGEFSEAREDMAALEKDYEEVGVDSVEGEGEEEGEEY
T1 sequence (P02554 whole entry partner): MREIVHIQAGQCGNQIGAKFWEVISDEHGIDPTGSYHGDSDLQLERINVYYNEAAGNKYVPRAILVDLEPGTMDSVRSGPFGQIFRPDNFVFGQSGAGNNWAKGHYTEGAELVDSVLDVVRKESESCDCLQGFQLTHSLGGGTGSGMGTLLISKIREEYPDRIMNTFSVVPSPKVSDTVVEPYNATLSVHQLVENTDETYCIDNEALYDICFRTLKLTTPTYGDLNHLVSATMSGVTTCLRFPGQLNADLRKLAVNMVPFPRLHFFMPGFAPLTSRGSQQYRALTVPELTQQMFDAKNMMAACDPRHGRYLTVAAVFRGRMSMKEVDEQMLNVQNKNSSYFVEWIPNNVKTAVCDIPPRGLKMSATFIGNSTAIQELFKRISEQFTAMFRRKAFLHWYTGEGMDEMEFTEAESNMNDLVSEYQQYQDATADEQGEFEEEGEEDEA

IC50 [µM]	SMILES
0.027	O=C(Nc1ccc(NS(=O)(=O)CCO)cc1N1CCC2(CC1)CC2)c1ccnc(N2CCC(F)(F)CC2)c1 [Example 11, 2-(4,4-Difluoropiperidin-1-yl)-N-(4-((2-hydroxyethyl)sulfonamido)-2-(6-azaspiro[2.5]octan-6-yl)phenyl)isonicotinamide]
0.916	Cc1cc(NC(=O)c2ccc(NC3COC3)nc2N2CCC3(CC2)CC3)nc(N2CCO[C@H](C)C2)n1 [Example 2, (R)—N-(6-methyl-2-(2-methylmorpholino)pyrimidin-4-yl)-6-(oxetan-3-ylamino)-2-(6-azaspiro[2.5]octan-6-yl)nicotinamide]
0.272	Cc1cc(NC(=O)c2cnc(NS(=O)(=O)CCO)nc2N2CCC3(CC2)CC3)nc(N2CCC(F)(F)CC2)n1 [Example 7-1, N-(2-(4,4-difluoropiperidin-1-yl)-6-methylpyrimidin-4-yl)-2-((2-hydroxyethyl)sulfonamido)-4-(6-azaspiro[2.5]octan-6-yl)pyrimidine-5-carboxamide]
0.08	Cc1cc(NC(=O)c2ncc(NS(=O)(=O)CCO)nc2N2CCC3(CC2)CC3)nc(N2CCC(F)(F)CC2)n1 [Example 10, N-(2-(4,4-Difluoropiperidin-1-yl)-6-methylpyrimidin-4-yl)-5-((2-hydroxyethyl)sulfonamido)-3-(6-azaspiro[2.5]octan-6-yl)pyrazine-2-carboxamide]
0.013	Cc1cc(NC(=O)c2cnc(NS(=O)(=O)CCO)cc2N2CCC3(CC2)CC3)nc(N2CCC(F)(F)CC2)n1 [Example 7, N-(2-(4,4-Difluoropiperidin-1-yl)-6-methylpyrimidin-4-yl)-6-((2-hydroxyethyl)sulfonamido)-4-(6-azaspiro[2.5]octan-6-yl)nicotinamide]
0.071	Cc1cc(NC(=O)c2ncc(S(=N)(=O)C3CC3)cc2N2CCC3(CC2)CC3)nc(N2CCC(F)(F)CC2)n1 (single isomer, unassigned) [Example 5-2, 3-(6-Azaspiro[2.5]octan-6-yl)-5-(S-cyclopropylsulfonimidoyl)-N-(2-(4,4-difluoro-1-piperidinyl)-6-methyl-4-pyrimidinyl)-2-pyridinecarboxamide]
0.218	Cc1cc(NC(=O)c2ccc(NC3(CO)COC3)nc2N2CCC3(CC2)CC3)nc(N2CCO[C@H](C)C2)n1 [Example 2-2, (R)-6-((3-(Hydroxymethyl)oxetan-3-yl)amino)-N-(6-methyl-2-(2-methylmorpholino)pyrimidin-4-yl)-2-(6-azaspiro[2.5]octan-6-yl)nicotinamide]
0.015	Cc1cc(NC(=O)c2ncc(NS(=O)(=O)CCO)cc2N2CCC3(CC2)CC3)nc(N2CCC(F)(F)CC2)n1 [Example 6, N-(2-(4,4-Difluoropiperidin-1-yl)-6-methylpyrimidin-4-yl)-5-((2-hydroxyethyl)sulfonamido)-3-(6-azaspiro[2.5]octan-6-yl)picolinamide]
0.355	Cc1cc(NC(=O)c2ccc(NC3(C)COC3)nc2N2CCC3(CC2)CC3)nc(N2CCO[C@H](C)C2)n1 [Example 2-1, (R)-N-(6-Methyl-2-(2-methylmorpholino)pyrimidin-4-yl)-6-((3-methyloxetan-3-yl)amino)-2-(6-azaspiro[2.5]octan-6-yl)nicotinamide]
0.088	Cc1cc(NC(=O)c2ncc(NC(C)(C)CO)nc2N2CCC3(CC2)CC3)nc(N2CCC(F)(F)CC2)n1 [Example 2-8, N-(2-(4,4-Difluoropiperidin-1-yl)-6-methylpyrimidin-4-yl)-5-((1-hydroxy-2-methylpropan-2-yl)amino)-3-(6-azaspiro[2.5]octan-6-yl)pyrazine-2-carboxamide]
0.402	Cc1cc(NC(=O)c2ccc(NS(=O)(=O)CCO)nc2N2CCC3(CC2)CC3)nc(N2CCO[C@H](C)C2)n1 [Example 1-1, (R)-6-((2-Hydroxyethyl)sulfonamido)-N-(6-methyl-2-(2-methylmorpholino)pyrimidin-4-yl)-2-(6-azaspiro[2.5]octan-6-yl)nicotinamide]
0.031	Cc1cc(NC(=O)c2ccc(NS(=O)(=O)CCO)nc2N2CCC3(CC2)CC3)nc(N2CCC(F)(F)CC2)n1 [Example 1, N-(2-(4,4-difluoropiperidin-1-yl)-6-methylpyrimidin-4-yl)-6-((2-hydroxyethyl)sulfonamido)-2-(6-azaspiro[2.5]octan-6-yl)nicotinamide]
0.264	Cc1cc(NC(=O)c2cnc(S(=N)(=O)C3CC3)cc2N2CCC3(CC2)CC3)nc(N2CCC(F)(F)CC2)n1 (single isomer, unassigned) [Example 4-1, 4-(6-Azaspiro[2.5]octan-6-yl)-6-(S-cyclopropylsulfonimidoyl)-N-(2-(4,4-difluoro-1-piperidinyl)-6-methyl-4-pyrimidinyl)-3-pyridinecarboxamide]
0.055	Cc1cc(NC(=O)c2cnc(NC(C)(C)CO)nc2N2CCC3(CC2)CC3)nc(N2CCC(F)(F)CC2)n1 [Example 2-7, N-(2-(4,4-Difluoropiperidin-1-yl)-6-methylpyrimidin-4-yl)-2-((1-hydroxy-2-methylpropan-2-yl)amino)-4-(6-azaspiro[2.5]octan-6-yl)pyrimidine-5-carboxamide]
0.091	Cc1cc(NC(=O)c2ncc(S(=O)(=O)C3CC3)cc2N2CCC3(CC2)CC3)nc(N2CCC(F)(F)CC2)n1 [Example 8, 5-(Cyclopropylsulfonyl)-N-(2-(4,4-difluoropiperidin-1-yl)-6-methylpyrimidin-4-yl)-3-(6-azaspiro[2.5]octan-6-yl)picolinamide]
0.453	Cc1cc(NC(=O)c2ccc(NC3(C)COC3)nc2N2CCC3(CC2)CC3)nc(N2CCC(F)(F)CC2)n1 [Example 2-3, N-(2-(4,4-Difluoropiperidin-1-yl)-6-methylpyrimidin-4-yl)-6-((3-methyloxetan-3-yl)amino)-2-(6-azaspiro[2.5]octan-6-yl)nicotinamide]
0.206	Cc1cc(NC(=O)c2cnc([S@@](=N)(=O)C3CC3)cc2N2CCC3(CC2)CC3)nc(N2CCC(F)(F)CC2)n1 (single isomer, unassigned) [Example 4-2, 4-(6-Azaspiro[2.5]octan-6-yl)-6-(R-cyclopropylsulfonimidoyl)-N-(2-(4,4-difluoro-1-piperidinyl)-6-methyl-4-pyrimidinyl)-3-pyridinecarboxamide]
0.394	Cc1cc(NC(=O)c2cc(NCCO)ncc2N2CCC3(CC2)CC3)nc(N2CCC(F)(F)CC2)n1 [Example 9, N-(2-(4,4-Difluoropiperidin-1-yl)-6-methylpyrimidin-4-yl)-2-((2-hydroxyethyl)amino)-5-(6-azaspiro[2.5]octan-6-yl)isonicotinamide]
0.23	Cc1cc(NC(=O)c2ccc(NC(C)(C)CO)nc2N2CCC3(CC2)CC3)nc(N2CCO[C@H](C)C2)n1 [Example 2-5, (R)-6-((1-Hydroxy-2-methylpropan-2-yl)amino)-N-(6-methyl-2-(2-methylmorpholino)pyrimidin-4-yl)-2-(6-azaspiro[2.5]octan-6-yl)nicotinamide]
0.122	Cc1cc(NC(=O)c2ncc(NC(C)(C)CO)cc2N2CCC3(CC2)CC3)nc(N2CCC(F)(F)CC2)n1 [Example 2-6, N-(2-(4,4-Difluoropiperidin-1-yl)-6-methylpyrimidin-4-yl)-5-((1-hydroxy-2-methylpropan-2-yl)amino)-3-(6-azaspiro[2.5]octan-6-yl)picolinamide]
0.105	Cc1cc(NC(=O)c2ncc([S@](=N)(=O)C3CC3)cc2N2CCC3(CC2)CC3)nc(N2CCC(F)(F)CC2)n1 [Example 5-1, 3-(6-Azaspiro[2.5]octan-6-yl)-5-(R-cyclopropylsulfonimidoyl)-N-(2-(4,4-difluoro-1-piperidinyl)-6-methyl-4-pyrimidinyl)-2-pyridinecarboxamide]
0.173	Cc1cc(NC(=O)c2ccc(NC3(CO)COC3)nc2N2CCC3(CC2)CC3)nc(N2CCC(F)(F)CC2)n1 [Example 2-4, N-(2-(4,4-Difluoropiperidin-1-yl)-6-methylpyrimidin-4-yl)-6-((3-(hydroxymethyl)oxetan-3-yl)amino)-2-(6-azaspiro[2.5]octan-6-yl)nicotinamide]
